Data from patent US10405547B2, “Substituted cyclic amides as herbicides” (FMC Corporation, priority 2015, dated 2019).

Tests used:
Type in all cases: in vivo
[1] = tested on: foxtail, giant (Setaria faberii); test: Test A postemergence, giant foxtail; conditions: 0 to 100 scale (0 no effect, 100 complete control)
Procedure, shortened: (§1)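 Ratings use a 0–100 scale, where 0 means no effect and 100 means complete control, and come from visual comparison with untreated plants roughly 10 days after treatment. Compounds were applied in a surfactant-containing, non-phytotoxic solvent, either to soil after seeding or to foliage of small seedlings.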

[2] = tested on: wheat (Triticum aestivum); test: Test A postemergence, wheat; conditions: 0 to 100 scale (0 no effect, 100 complete control)
Procedure, shortened: as §1

kochia (Kochia scoparia) [3] = test: Test A postemergence, kochia; conditions: 0 to 100 scale (0 no effect, 100 complete control)
Procedure, shortened: as §1

[4] = tested on: barnyardgrass (Echinochloa crus-galli); test: Test A preemergence, barnyardgrass; conditions: 0 to 100 scale (0 no effect, 100 complete control)
Procedure, shortened: as §1

[5] = tested on: barnyardgrass (Echinochloa crus-galli); test: Test B flooded paddy test, barnyardgrass; conditions: 250 g ai/ha, applied to paddy water, visual rating after 13 to 15 days, scale 0 (no effect) to 100 (complete control)
Procedure, shortened: (§2)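 Under a constant 3 cm flood, test compounds went directly into the paddy water. Following 13 to 15 days of greenhouse growth, treated species and controls were compared by eye.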

[6] = tested on: ducksalad (Heteranthera limosa); test: Test B flooded paddy test, ducksalad; conditions: 250 g ai/ha, applied to paddy water, visual rating after 13 to 15 days, scale 0 (no effect) to 100 (complete control)
Procedure, shortened: as §2

[7] = tested on: pigweed (Amaranthus retroflexus); test: Test A preemergence, pigweed; conditions: 0 to 100 scale (0 no effect, 100 complete control)
Procedure, shortened: as §1

[8] = tested on: sedge, umbrella (small-flower umbrella sedge, Cyperus difformis); test: Test B flooded paddy test, umbrella sedge; conditions: 250 g ai/ha, applied to paddy water, visual rating after 13 to 15 days, scale 0 (no effect) to 100 (complete control)
Procedure, shortened: as §2

corn (Zea mays) = test: Test A postemergence, corn; conditions: 0 to 100 scale (0 no effect, 100 complete control)
Procedure, shortened: as §1

[9] = tested on: ragweed (common ragweed, Ambrosia elatior); test: Test A preemergence, ragweed; conditions: 0 to 100 scale (0 no effect, 100 complete control)
Procedure, shortened: as §1

[10] = tested on: blackgrass (Alopecurus myosuroides); test: Test A postemergence, blackgrass; conditions: 0 to 100 scale (0 no effect, 100 complete control)
Procedure, shortened: as §1

[11] = tested on: galium (catchweed bedstraw, Galium aparine); test: Test A postemergence, galium; conditions: 0 to 100 scale (0 no effect, 100 complete control)
Procedure, shortened: as §1

[12] = tested on: ragweed (common ragweed, Ambrosia elatior); test: Test A postemergence, ragweed; conditions: 0 to 100 scale (0 no effect, 100 complete control)
Procedure, shortened: as §1

[13] = tested on: ryegrass, Italian (Lolium multiflorum); test: Test A postemergence, Italian ryegrass; conditions: 0 to 100 scale (0 no effect, 100 complete control)
Procedure, shortened: as §1

rice (Oryza sativa) = test: Test B flooded paddy test, rice; conditions: 250 g ai/ha, applied to paddy water, visual rating after 13 to 15 days, scale 0 (no effect) to 100 (complete control)
Procedure, shortened: as §2

[14] = tested on: pigweed (Amaranthus retroflexus); test: Test A postemergence, pigweed; conditions: 0 to 100 scale (0 no effect, 100 complete control)
Procedure, shortened: as §1

kochia (Kochia scoparia) [15] = test: Test A preemergence, kochia; conditions: 0 to 100 scale (0 no effect, 100 complete control)
Procedure, shortened: as §1

[16] = tested on: ryegrass, Italian (Lolium multiflorum); test: Test A preemergence, Italian ryegrass; conditions: 0 to 100 scale (0 no effect, 100 complete control)
Procedure, shortened: as §1

[17] = tested on: barnyardgrass (Echinochloa crus-galli); test: Test A postemergence, barnyardgrass; conditions: 0 to 100 scale (0 no effect, 100 complete control)
Procedure, shortened: as §1

[18] = tested on: foxtail, giant (Setaria faberii); test: Test A preemergence, giant foxtail; conditions: 0 to 100 scale (0 no effect, 100 complete control)
Procedure, shortened: as §1

[19] = 125 g ai/ha, visual injury, approximately 10 days
[20] = 500 g ai/ha, visual injury, approximately 10 days

Structure (SMILES) | Plant response rating, Foxtail, Giant [1, 19] | Plant response rating, Wheat [2, 19] | Plant response rating, Kochia (kochia (Kochia scoparia) [3]; [19]) | Plant response rating, Barnyardgrass ([4]; 125 g ai/ha) | Plant response rating, Barnyardgrass (Flood) [5] | Plant response rating, Ducksalad (Flood) [6] | Plant response rating, Pigweed ([7]; 125 g ai/ha) | Plant response rating, Sedge, Umbrella (Flood) [8] | Plant response rating, Corn (corn (Zea mays); [19]) | Plant response rating, Ragweed ([9]; 125 g ai/ha) | Plant response rating, Blackgrass [10, 19] | Plant response rating, Galium [11, 19] | Plant response rating, Ragweed [12, 19] | Plant response rating, Ryegrass, Italian [13, 19] | Plant response rating, Rice (Flood) (rice (Oryza sativa)) | Plant response rating, Pigweed [14, 19] | Plant response rating, Kochia (kochia (Kochia scoparia) [15]; 125 g ai/ha) | Plant response rating, Ryegrass, Italian ([16]; 125 g ai/ha) | Plant response rating, Barnyardgrass [17, 19] | Plant response rating, Foxtail, Giant ([18]; 125 g ai/ha) | also measured
CN1CC(c2cccc(Oc3ncc(F)cn3)c2)C(C(=O)Nc2ccccc2F)C1=O (single isomer, unassigned) [Compound 36] | 80 | 0 | 0 | 90 | 60 | 0 | 0 | 0 | 40 | 0 | 20 | 40 | 0 | 0 | 30 | 30 | 0 | 0 | 90 | 90 | Plant response rating, Foxtail, Giant [1, 20]: 80; Plant response rating, Wheat [2, 20]: 60; Plant response rating, Kochia (kochia (Kochia scoparia) [3]; [20]): 50; Plant response rating, Barnyardgrass ([4]; 500 g ai/ha): 90; Plant response rating, Pigweed ([7]; 500 g ai/ha): 40; Plant response rating, Corn (corn (Zea mays); [20]): 90; Plant response rating, Ragweed ([9]; 500 g ai/ha): 50; Plant response rating, Blackgrass [10, 20]: 50; Plant response rating, Galium [11, 20]: 70; Plant response rating, Ragweed [12, 20]: 40; Plant response rating, Ryegrass, Italian [13, 20]: 50; Plant response rating, Pigweed [14, 20]: 50; Plant response rating, Kochia (kochia (Kochia scoparia) [15]; 500 g ai/ha): 40; Plant response rating, Ryegrass, Italian ([16]; 500 g ai/ha): 90; Plant response rating, Barnyardgrass [17, 20]: 90; Plant response rating, Foxtail, Giant ([18]; 500 g ai/ha): 90
CN1CC(c2cccc(Oc3ccc(F)cn3)c2)C(C(=O)Nc2cccc(F)c2C#N)C1=O (single isomer, unassigned) [Compound 89] | 70 | 0 | 0 | 70 | 0 | 70 | 60 | 0 | 0 | 0 | 20 | 40 | 0 | 20 | 0 | 50 | 0 | 40 | 70 | 90 | Plant response rating, Foxtail, Giant ([1]; 31 g ai/ha): 30; Plant response rating, Wheat ([2]; 31 g ai/ha): 0; Plant response rating, Kochia (kochia (Kochia scoparia) [3]; 31 g ai/ha): 0; Plant response rating, Barnyardgrass ([4]; 31 g ai/ha): 30; Plant response rating, Pigweed ([7]; 31 g ai/ha): 0; Plant response rating, Corn (corn (Zea mays); 31 g ai/ha): 0; Plant response rating, Ragweed ([9]; 31 g ai/ha): 0; Plant response rating, Blackgrass ([10]; 31 g ai/ha): 0; Plant response rating, Galium ([11]; 31 g ai/ha): 30; Plant response rating, Ragweed ([12]; 31 g ai/ha): 0; Plant response rating, Ryegrass, Italian ([13]; 31 g ai/ha): 0; Plant response rating, Pigweed ([14]; 31 g ai/ha): 0; Plant response rating, Kochia (kochia (Kochia scoparia) [15]; 31 g ai/ha): 0; Plant response rating, Ryegrass, Italian ([16]; 31 g ai/ha): 0; Plant response rating, Barnyardgrass ([17]; 31 g ai/ha): 30; Plant response rating, Foxtail, Giant ([18]; 31 g ai/ha): 40
CN1CC(c2cccc(Oc3ccc(C(F)(F)F)cn3)c2)C(C(=O)Nc2cccc(F)c2F)C1=O (single isomer, unassigned) [Compound 44] | 70 | 0 | 30 | 80 | 40 | 90 | 30 | 0 | 40 | 0 | 30 | 70 | 0 | 0 | 0 | 50 | 0 | 30 | 90 | 90 | Plant response rating, Foxtail, Giant [1, 20]: 80; Plant response rating, Wheat [2, 20]: 50; Plant response rating, Kochia (kochia (Kochia scoparia) [3]; [20]): 60; Plant response rating, Barnyardgrass ([4]; 500 g ai/ha): 80; Plant response rating, Pigweed ([7]; 500 g ai/ha): 80; Plant response rating, Corn (corn (Zea mays); [20]): 80; Plant response rating, Ragweed ([9]; 500 g ai/ha): 60; Plant response rating, Blackgrass [10, 20]: 50; Plant response rating, Galium [11, 20]: 80; Plant response rating, Ragweed [12, 20]: 0; Plant response rating, Ryegrass, Italian [13, 20]: 30; Plant response rating, Pigweed [14, 20]: 80; Plant response rating, Kochia (kochia (Kochia scoparia) [15]; 500 g ai/ha): 0; Plant response rating, Ryegrass, Italian ([16]; 500 g ai/ha): 90; Plant response rating, Barnyardgrass [17, 20]: 90; Plant response rating, Foxtail, Giant ([18]; 500 g ai/ha): 90
O=C1NCC(c2cccc(OCc3ccco3)c2)C1C(=O)Nc1ccccc1C(F)(F)F (stereo not drawn) [Compound 2] | 0 | 0 | 0 | 0 | 0 | 0 | 0 | 0 | 0 | 0 | 0 | 0 | 0 | 0 | 0 | 0 | 0 | 0 | 0 | 0 | Plant response rating, Foxtail, Giant [1, 20]: 10; Plant response rating, Wheat [2, 20]: 0; Plant response rating, Kochia (kochia (Kochia scoparia) [3]; [20]): 0; Plant response rating, Barnyardgrass ([4]; 500 g ai/ha): 30; Plant response rating, Pigweed ([7]; 500 g ai/ha): 0; Plant response rating, Corn (corn (Zea mays); [20]): 0; Plant response rating, Ragweed ([9]; 500 g ai/ha): 0; Plant response rating, Blackgrass [10, 20]: 0; Plant response rating, Galium [11, 20]: 0; Plant response rating, Ragweed [12, 20]: 0; Plant response rating, Ryegrass, Italian [13, 20]: 10; Plant response rating, Pigweed [14, 20]: 0; Plant response rating, Kochia (kochia (Kochia scoparia) [15]; 500 g ai/ha): 0; Plant response rating, Ryegrass, Italian ([16]; 500 g ai/ha): 0; Plant response rating, Barnyardgrass [17, 20]: 0; Plant response rating, Foxtail, Giant ([18]; 500 g ai/ha): 20
